Test results taken from publication PMC5421785, “Citrullination only infrequently impacts peptide binding to HLA class II MHC” (PLoS ONE, 2017).
Like-named read-outs stand apart in the source and are kept apart here.

Assays:
HLA-DRB1*01:01 = target: T1, HLA-DRB1*01:01 (Homo sapiens, UniProt P01903+P01911, A100R/D57E/F55L/F60I/F76Y/I96L/L162R/M171V/P40L/Q125E/R42F/V115G/Y59C); experiment: HLA class II peptide binding, inhibition of radiolabeled peptide binding to purified MHC; conditions: read-out: DRB1*01:01 binding capacity, WT peptide (IC50 nM)
T1 construct: EBV transformed homozygous cell lines were used as sources of MHC molecules; endogenous in cells; host or cells: EBV transformed homozygous cell lines

HLA-DRB1*04:01 = target: T2, HLA-DRB1*04:01 (Homo sapiens, UniProt P01903+P01911, A100K/A169T/F76Y/I96L/K127E/L162R/M171V/N62H/P40V/Q125Y/R42H/S133A/S149N/S66Y/V115G/V209L/W38E); experiment: as above; conditions: read-out: DRB1*04:01 binding capacity, WT peptide (IC50 nM)
T2 construct: EBV transformed homozygous cell lines were used as sources of MHC molecules; endogenous in cells; host or cells: EBV transformed homozygous cell lines

[1] = wild-type (unmodified Arg) 15-mer peptide, purified HLA-DRB1*01:01
[2] = wild-type (unmodified Arg) 15-mer peptide, purified HLA-DRB1*04:01

IC50 (HLA-DRB1*01:01) [nM] | IC50 (HLA-DRB1*04:01) [nM] | IC50 (HLA-DRB1*01:01; [1]) [nM] | IC50 (HLA-DRB1*04:01; [2]) [nM] | SMILES
3070 | > 40000 |  |  | CC[C@H](C)[C@H](NC(=O)[C@H](Cc1ccc(O)cc1)NC(=O)[C@H](CC(N)=O)NC(=O)[C@H](C)NC(=O)[C@H](Cc1ccccc1)NC(=O)[C@H](CCCNC(=N)N)NC(=O)[C@H](CC(=O)O)NC(=O)[C@H](CC(N)=O)NC(=O)[C@H](CC(C)C)NC(=O)[C@H](CCC(=O)O)NC(=O)[C@H](CCC(N)=O)NC(=O)[C@H](CC(C)C)NC(=O)[C@@H](N)CCC(=O)O)C(=O)N[C@@H](CC(=O)O)C(=O)N[C@@H](CCCCN)C(=O)O [Vimentin 106 WT]
5.7 | 513 |  |  | CC[C@H](C)[C@H](NC(=O)[C@H](CCCCN)NC(=O)[C@H](CC(N)=O)NC(=O)[C@H](CCC(N)=O)NC(=O)[C@H](CCC(N)=O)NC(=O)[C@H](CCC(=O)O)NC(=O)[C@H](CC(C)C)NC(=O)[C@H](Cc1ccccc1)NC(=O)[C@H](CCCNC(=N)N)NC(=O)[C@@H](N)C(C)C)C(=O)N[C@@H](CC(C)C)C(=O)N[C@@H](CC(C)C)C(=O)N[C@@H](C)C(=O)N[C@@H](CCC(=O)O)C(=O)N[C@@H](CC(C)C)C(=O)O [Vimentin 121 WT]
3720 | > 40000 |  |  | CC(C)C[C@H](NC(=O)[C@H](CCCNC(=N)N)NC(=O)[C@H](CO)NC(=O)[C@H](CCCCN)NC(=O)CNC(=O)[C@H](CCC(N)=O)NC(=O)CNC(=O)[C@H](CCCCN)NC(=O)[C@H](CC(C)C)NC(=O)[C@H](CCC(N)=O)NC(=O)[C@@H](N)CCC(=O)O)C(=O)NCC(=O)N[C@@H](CC(=O)O)C(=O)N[C@@H](CC(C)C)C(=O)N[C@@H](Cc1ccc(O)cc1)C(=O)O [Vimentin 136 WT]
9380 | 38500 |  |  | CSCC[C@H](NC(=O)[C@H](CCC(=O)O)NC(=O)[C@H](CCC(=O)O)NC(=O)[C@H](CCC(=O)O)NC(=O)[C@H](Cc1ccc(O)cc1)NC(=O)[C@H](CC(C)C)NC(=O)[C@H](CC(=O)O)NC(=O)CNC(=O)[C@@H](N)CC(C)C)C(=O)N[C@@H](CCCNC(=N)N)C(=O)N[C@@H](CCC(=O)O)C(=O)N[C@@H](CC(C)C)C(=O)N[C@@H](CCCNC(=N)N)C(=O)N[C@@H](CCCNC(=N)N)C(=O)N[C@@H](CCC(N)=O)C(=O)O [Vimentin 146 WT]
 |  | 7110 | 4550 | CC[C@H](C)[C@H](NC(=O)[C@H](CCC(=O)O)NC(=O)[C@H](CC(=O)O)NC(=O)[C@@H](N)CCC(N)=O)C(=O)N[C@@H](CCC(N)=O)C(=O)N[C@@H](CC(N)=O)C(=O)N[C@@H](CCSC)C(=O)N[C@@H](CCCCN)C(=O)N[C@@H](CCC(=O)O)C(=O)N[C@@H](CCC(=O)O)C(=O)N[C@@H](CCSC)C(=O)N[C@@H](C)C(=O)N[C@@H](CCCNC(=N)N)C(=O)N[C@@H](Cc1c[nH]cn1)C(=O)N[C@@H](CC(C)C)C(=O)O [Vimentin 366 WT]
 |  | 3020 | > 40000 | CSCC[C@H](NC(=O)[C@H](CCC(=O)O)NC(=O)[C@H](CCC(=O)O)NC(=O)[C@H](CCCCN)NC(=O)[C@H](CCSC)NC(=O)[C@@H](N)CC(N)=O)C(=O)N[C@@H](C)C(=O)N[C@@H](CCCNC(=N)N)C(=O)N[C@@H](Cc1c[nH]cn1)C(=O)N[C@@H](CC(C)C)C(=O)N[C@@H](CCCNC(=N)N)C(=O)N[C@@H](CCC(=O)O)C(=O)N[C@@H](Cc1ccc(O)cc1)C(=O)N[C@@H](CCC(N)=O)C(=O)N[C@@H](CC(=O)O)C(=O)O [Vimentin 371 WT]
 |  | 192 | 1220 | CC[C@H](C)[C@H](NC(=O)[C@H](CC(=O)O)NC(=O)[C@H](CC(C)C)NC(=O)[C@H](C)NC(=O)[C@H](CCSC)NC(=O)[C@H](CCCCN)NC(=O)[C@@H](NC(=O)[C@H](CC(N)=O)NC(=O)[C@H](CC(C)C)NC(=O)[C@H](CC(C)C)NC(=O)[C@H](CC(=O)O)NC(=O)[C@H](CCC(N)=O)NC(=O)[C@H](Cc1ccc(O)cc1)NC(=O)[C@H](CCC(=O)O)NC(=O)[C@@H](N)CCCNC(=N)N)C(C)C)C(=O)O [Vimentin 381 WT]
 |  | 1920 | 2710 | CC[C@H](C)[C@H](NC(=O)[C@H](CCCNC(=N)N)NC(=O)[C@H](CO)NC(=O)[C@H](CCC(=O)O)NC(=O)[C@H](CCC(=O)O)NC(=O)CNC(=O)[C@H](CCC(=O)O)NC(=O)[C@H](CC(C)C)NC(=O)[C@H](CC(C)C)NC(=O)[C@H](CCCCN)NC(=O)[C@@H](N)CCCNC(=N)N)C(=O)N[C@@H](CO)C(=O)N[C@@H](CC(C)C)C(=O)N1CCC[C@H]1C(=O)N[C@@H](CC(C)C)C(=O)O [Vimentin 401 WT]
 |  | 326 | 7000 | CC[C@H](C)[C@H](N)C(=O)N[C@@H](CO)C(=O)N[C@@H](CC(C)C)C(=O)N1CCC[C@H]1C(=O)N[C@@H](CC(C)C)C(=O)N1CCC[C@H]1C(=O)N[C@@H](CC(N)=O)C(=O)N[C@@H](Cc1ccccc1)C(=O)N[C@@H](CO)C(=O)N[C@@H](CO)C(=O)N[C@@H](CC(C)C)C(=O)N[C@@H](CC(N)=O)C(=O)N[C@@H](CC(C)C)C(=O)N[C@@H](CCCNC(=N)N)C(=O)N[C@@H](CCC(=O)O)C(=O)O [Vimentin 411 WT]
